Source: patent US5955421A, “Peptides containing D-2-alkyl-Tryptophan” (priority 1990, dated 1999)
Read-outs that look alike come from different tables or passages of the source. Square brackets hold non-standard residues; d marks the D form. Peptide text beside a SMILES is read from it. dTrp(2-Me) = Cc1[nH]c2ccccc2c1C[C@@H](N)C(=O)O

Tests used:
growth hormone secretion = experiment: Growth hormone secretion in young healthy male volunteers; type: in vivo, human; settings: young (20-30 years old) healthy male volunteers, various dosages, FIGS. 18-20
Procedure: The effects of HEXARELIN on growth hormone secretion in young (20-30 years old) healthy male volunteers were measured after the administration of various dosages.

Human heart tissue = experiment: Inhibition of 125I-Tyr-Ala-HEXARELIN binding to human heart tissue membranes
Procedure: (§1) Tissue membranes (0.1 mg protein) obtained from the heart and hypothalamus of two different adult subjects were incubated in triplicate with a subsaturating concentration (34 pM, about 48,000 cpm, for heart tissue and 42 pM, about 60,000 cpm for hypothalamus tissue) of ^125 I-Tyr-Ala-HEXARELIN for 40 min at 0° C. in the absence and in the presence of increasing concentrations of the indicated unlabelled peptides. The value in parentheses represents the % of inhibition of ^125 I-Tyr-Ala-HEXARELIN specifically bound.
(§2) The specific binding of ^125 I-Tyr-Ala-HEXARELIN/0.1 mg membrane protein is expressed as a percent of total radioactivity added.

Growth Hormone release = experiment: GH release in 10-day old rats, s.c. 160 μg/kg; type: in vivo; settings: 160 μg/kg s.c.
Procedure: The peptides of Examples 4 and 5 were tested as Growth Hormone releasers in rats. GH released in a series of seven 10-day old rats, injected subcutaneously with a standard dose of 160 μg/kg and sacrificed 15 minutes after the injection.

GH release [1] = experiment: Released GH in ten day-rats, s.c. (Table 9); type: in vivo; settings: 300 μg/kg s.c., 15 minutes, GH control 10 to 31 ng/ml depending on experiment
Procedure: In vivo activity of these compounds was determined in ten day-rats, which were subcutaneously injected (s.c.) with a dose of 300 μg/kg or with different doses in dose-response studies, according to the procedure as described in Deghenghi et. al, Life Sciences 54, 1321 (1994). The released GH was measured 15 minutes following compound administration.

[2] = test system: pituitary cell monolayers; experiment: GH secretion of pituitary cell monolayers incubated with peptides; type: cell-based, rats; settings: 2 hours incubation
Procedure: (§3) Male Sprague Dawley rats (Charles River, Calco, Italy) of 2-3 months of age were used. Rats were housed at 22 +2° C., with lighting cycle of 14 h light: 10 h dark (lights on from 06.00 to 20.00 h), at least 10 days before starting the experiments. A standard dry diet and water were available ad libitum.
Pituitary tissue used for cell dissociation included only the anterior lobe. Briefly, pituitary glands were collected in sterile F-10 medium and after cutting into small fragments incubated twice (30 minutes each) at 37° C. in F-10 medium containing 6% fetal calf serum and collagenase (2.5 mg/ml) (Boehringer, Mannheim GmbH, Germany). Fragments were then washed in Dulbecco's PBS, Ca^2 + and Mg^2 + free medium and mechanically dissociated. Single cell suspension was planted onto 24-well (2×10^5 cells/well) culture plates. The cells were incubated in F-10 medium supplemented with 10% horse serum, 4% fetal calf serum and gentamycin (25 μg/ml), in a humidified atmosphere of 5% CO2 and 95% air at 37° C.
After 3 days, the medium was removed and the cells washed twice with serum free F-10, then incubated with 1 ml of F-10 containing 0.1% BSA only, or with added various concentrations of synthetic peptides.
After incubation for 2 h at 37° C., media were collected and stored frozen at -20° C. until assayed for measurement of GH content.
(§4) Medium and plasma GH was measured by radioimmunoassay using materials supplied by the NIADDK Bethesda, Md. Values were expressed in term of NIASSK-rat-GH-RP-2 standard (potency 2 IU/ml), as ng/ml of medium or plasma.
(§5) The minimum detectable value of rat was 1.0 ng/ml; intra-assay variability was 6%. To avoid inter-assay variation, samples from each experiment were assayed simultaneously.

[3] = Hydrophobicity comparison (FIG. 12); type: physicochemical
Source text: FIG. 12 is a graphical comparison of the hydrophobicity of GHRP-6 and HEXARELIN;

GH release [4] = experiment: Plasma GH after s.c. administration in male rats anesthetized with ketamine and xilazine; type: in vivo
Procedure: as §3
Between 09.00-10.00 h rats were anesthetized with ketamine (58 mg/kg, Inoketam, VIRBAC, Milano) and xilazine (12 mg/kg, Rompun, Bayer, Milano). Thirty minutes later, a blood sample ([…]) was withdrawn from the exposed jugular vein, peptides were injected intravenously or subcutaneously, and further blood samples were collected 10, 20 and 30 minutes later.
as §4, §5

rat = experiment: Acute cardiovascular toxicity in the rat, single i.v. dose, mortality; type: in vivo; settings: for Dead rats/Total No of rats per group: observed up to 4 hours
Procedure: These two peptides were also tested for acute cardiovascular toxicity in the rat.
Dosages were calculated on the basis of the declared peptide content in each product, as specified below:
A single dose of HEXARELIN or GHRP-6 was administered to rats in different calendar dates in such a way that each group/dose should be treated in two subsequent days.
For each compound, appropriate amounts of solutions in 0.9% NaCl for injection were prepared just before treatment at the suitable concentrations. The solutions were sterilized by filtration (Millipore filter, pore size 0.22 μm). Owing to the type of the study (acute study) in which formulates were administered just after preparation, stability checks were not performed. Concentration checks were also not performed. The volume of solution injected was maintained constant at 1 ml/Kg.
The intravenous injections were done as a single dose in one vein of the tail with an appropriately gauged sterile, disposable, plastic syringe. The injection rate was about 0.1 ml/sec.
Periodical observations were made up to 4 hours after treatment. Abnormality and mortality were recorded. Body weight was recorded once during pre-trial and on the administration day to calculate the volumes to be injected.

[5] = test system: Human hypothalamus tissue; experiment: Inhibition of 125I-Tyr-Ala-HEXARELIN binding to human hypothalamus tissue membranes
Procedure: as §1, §2

[6] = mean of two subjects, read-out: mean IC50 value
[7] = subject 1, read-out: IC50 value
[8] = subject 2, read-out: IC50 value

Structure (SMILES): Cc1[nH]c2ccccc2c1C[C@@H](NC(=O)[C@@H](N)Cc1cnc[nH]1)C(=O)N[C@@H](C)C(=O)N[C@@H](Cc1c[nH]c2ccccc12)C(=O)N[C@H](Cc1ccccc1)C(=O)N[C@@H](CCCCN)C(N)=O [Example 4, His-D-2-methyl-Trp-Ala-Trp-D-Phe-Lys-NH2] (H-H[dTrp(2-Me)]AW[dF]K-NH2)
- effect on growth hormone secretion (growth hormone secretion): effective in vivo
- inhibition of 125I-Tyr-Ala-HEXARELIN specifically bound (Human heart tissue; 0.1 nM peptide, subject 1): 4%
- specific binding of 125I-Tyr-Ala-HEXARELIN (Human heart tissue; 0.1 nM peptide, subject 1): 20.1% of total radioactivity
- inhibition of 125I-Tyr-Ala-HEXARELIN specifically bound (Human heart tissue; 0.1 nM peptide, subject 2): 5%
- specific binding of 125I-Tyr-Ala-HEXARELIN (Human heart tissue; 0.1 nM peptide, subject 2): 22.8% of total radioactivity
- inhibition of 125I-Tyr-Ala-HEXARELIN specifically bound (Human heart tissue; 1 nM peptide, subject 1): 20%
- specific binding of 125I-Tyr-Ala-HEXARELIN (Human heart tissue; 1 nM peptide, subject 1): 16.9% of total radioactivity
- inhibition of 125I-Tyr-Ala-HEXARELIN specifically bound (Human heart tissue; 1 nM peptide, subject 2): 28%
- specific binding of 125I-Tyr-Ala-HEXARELIN (Human heart tissue; 1 nM peptide, subject 2): 17.3% of total radioactivity
- inhibition of 125I-Tyr-Ala-HEXARELIN specifically bound (Human heart tissue; 10 nM peptide, subject 1): 51%
- specific binding of 125I-Tyr-Ala-HEXARELIN (Human heart tissue; 10 nM peptide, subject 1): 10.4% of total radioactivity
- inhibition of 125I-Tyr-Ala-HEXARELIN specifically bound (Human heart tissue; 10 nM peptide, subject 2): 56%
- specific binding of 125I-Tyr-Ala-HEXARELIN (Human heart tissue; 10 nM peptide, subject 2): 10.5% of total radioactivity
- inhibition of 125I-Tyr-Ala-HEXARELIN specifically bound (Human heart tissue; 100 nM peptide, subject 1): 92%
- specific binding of 125I-Tyr-Ala-HEXARELIN (Human heart tissue; 100 nM peptide, subject 1): 1.7% of total radioactivity
- inhibition of 125I-Tyr-Ala-HEXARELIN specifically bound (Human heart tissue; 100 nM peptide, subject 2): 90%
- specific binding of 125I-Tyr-Ala-HEXARELIN (Human heart tissue; 100 nM peptide, subject 2): 2.4% of total radioactivity
- inhibition of 125I-Tyr-Ala-HEXARELIN specifically bound (Human heart tissue; 1000 nM peptide, subject 1): 100%
- specific binding of 125I-Tyr-Ala-HEXARELIN (Human heart tissue; 1000 nM peptide, subject 1): 0% of total radioactivity
- inhibition of 125I-Tyr-Ala-HEXARELIN specifically bound (Human heart tissue; 1000 nM peptide, subject 2): 100%
- specific binding of 125I-Tyr-Ala-HEXARELIN (Human heart tissue; 1000 nM peptide, subject 2): 0% of total radioactivity
- IC50 (Human heart tissue; [6]): 9.5 nM
- IC50 (Human heart tissue; [7]): 10.6 nM
- IC50 (Human heart tissue; [8]): 8.3 nM
- activity as Growth Hormone releaser (Growth Hormone release): very active
- GH released (GH release [1]): 104.2 ± 13.1 ng/mL
- GH-releasing activity ([2]; 10^-6 M): 558.0 ± 19.1 ng/well
- GH-releasing activity ([2]; 10^-7 M): 589.1 ± 17.9 ng/well
- GH-releasing activity ([2]; 10^-8 M): 557.8 ± 15.9 ng/well
- hydrophobicity [3]: greater hydrophobicity than GHRP-6
- plasma GH (GH release [4]; s.c. 600 μg/kg, 30 min): 115.3 ± 19.1 ng/mL
- GH-releasing effectiveness compared (GH release [4]; s.c. 150, 300 and 600 μg/kg, 10, 20 and 30 minutes): more effective than GHRP-6 at all the considered times
- Dead rats/Total No of rats per group (rat; 5.0 mg/kg i.v. single dose): 0/6
- Dead rats/Total No of rats per group (rat; 7.5 mg/kg i.v. single dose): 1/6
- Dead rats/Total No of rats per group (rat; 10 mg/kg i.v. single dose): 2/6
- toxicity compared (rat; i.v. single dose, rat): less toxic than GHRP-6
- inhibition of 125I-Tyr-Ala-HEXARELIN specifically bound ([5]; 0.1 nM peptide, subject 1): 3%
- specific binding of 125I-Tyr-Ala-HEXARELIN ([5]; 0.1 nM peptide, subject 1): 10.7% of total radioactivity
- inhibition of 125I-Tyr-Ala-HEXARELIN specifically bound ([5]; 0.1 nM peptide, subject 2): 4%
- specific binding of 125I-Tyr-Ala-HEXARELIN ([5]; 0.1 nM peptide, subject 2): 9.1% of total radioactivity
- inhibition of 125I-Tyr-Ala-HEXARELIN specifically bound ([5]; 1 nM peptide, subject 1): 16%
- specific binding of 125I-Tyr-Ala-HEXARELIN ([5]; 1 nM peptide, subject 1): 9.6% of total radioactivity
- inhibition of 125I-Tyr-Ala-HEXARELIN specifically bound ([5]; 1 nM peptide, subject 2): 19%
- specific binding of 125I-Tyr-Ala-HEXARELIN ([5]; 1 nM peptide, subject 2): 7.7% of total radioactivity
- inhibition of 125I-Tyr-Ala-HEXARELIN specifically bound ([5]; 10 nM peptide, subject 1): 51%
- specific binding of 125I-Tyr-Ala-HEXARELIN ([5]; 10 nM peptide, subject 1): 5.2% of total radioactivity
- inhibition of 125I-Tyr-Ala-HEXARELIN specifically bound ([5]; 10 nM peptide, subject 2): 67%
- specific binding of 125I-Tyr-Ala-HEXARELIN ([5]; 10 nM peptide, subject 2): 3.1% of total radioactivity
- inhibition of 125I-Tyr-Ala-HEXARELIN specifically bound ([5]; 100 nM peptide, subject 1): 89%
- specific binding of 125I-Tyr-Ala-HEXARELIN ([5]; 100 nM peptide, subject 1): 1.2% of total radioactivity
- inhibition of 125I-Tyr-Ala-HEXARELIN specifically bound ([5]; 100 nM peptide, subject 2): 93%
- specific binding of 125I-Tyr-Ala-HEXARELIN ([5]; 100 nM peptide, subject 2): 0.7% of total radioactivity
- inhibition of 125I-Tyr-Ala-HEXARELIN specifically bound ([5]; 1000 nM peptide, subject 1): 100%
- specific binding of 125I-Tyr-Ala-HEXARELIN ([5]; 1000 nM peptide, subject 1): 0% of total radioactivity
- inhibition of 125I-Tyr-Ala-HEXARELIN specifically bound ([5]; 1000 nM peptide, subject 2): 100%
- specific binding of 125I-Tyr-Ala-HEXARELIN ([5]; 1000 nM peptide, subject 2): 0% of total radioactivity
- IC50 [5, 6]: 7 nM
- IC50 [5, 7]: 8.9 nM
- IC50 [5, 8]: 5 nM
